Laboratory results from US4876262A, “Piperidine derivative and pharmaceutical composition containing the same” (Eisai Co., Ltd., priority 1986, dated 1989).
Structures can show the parent of a compound that is named as a salt. Where two headings read alike, the source gives them in different places.

What was measured:
[1] = test system: isolated myocardium of guinea-pigs (right ventricular papillary muscles); assay: Effects on the action potential duration in the isolated myocardium of guinea-pigs; set-up: species or system guinea-pig (male, Hartley strain); details: Cavia porcellus, 10 min; for activation at 10 µM / activation at 1 µM: read-out: APD90 prolongation; for inhibition at 10 µM / inhibition at 1 µM: read-out: Vmax inhibition
Protocol: Right ventricular papillary muscles were isolated from male guinea-pigs of Hartley strain weighing 300 to 400 g and fixed at the bottom of an acrylic bath with pins. […] The muscles were stimulated at 1 Hz with rectangular pulses of 1 msec duration and supramaximal voltage. Action potentials were recorded using conventional glass microelectrodes filled with 3M KCl. The duration of the action potential and the maximum velocity of the upstroke of the action potential (Vmax) were determined. Each of the test compounds was included in Tyrode solution at 10^-6 or 10^-5 M and perfused.
Sotalol, a beta-adrenoceptor antagonist was employed as the reference drug because this compound is known to prolong the duration of the myocardial action potential.

[2] = test system: anesthetized dogs (QTc-interval of ECG); assay: Effects of QTc-interval of ECG in anesthetized dogs; type: in vivo, Mongrel dogs; details: forearm vein; for change in vivo at 1 mg/kg: 1 mg/kg (1.0 mg/kg)
[3] = in vivo; details: mouse, iv
Protocol: Male ddy mice weighing 20 to 30 g were used for the acute toxicity test. LD50 values were calculated by the up-and-down method. […] The dose to be administered was determined on the basis of the volume of the stock solution. The solutions were injected into a tail vein by means of a 1-ml tuberculin syringe. The judgement of survival or death was made 30 min after each injection.

[4] = 10^-5 M, another 10 min after 10^-6 M, 1 Hz, 37° C.
[5] = 10^-6 M, first 10 min, 1 Hz, 37° C.
[6] = Canis lupus familiaris, iv, 0.1 mg/kg, enflurane anesthesia, read-out: prolongation of QTc-interval
[7] = Canis lupus familiaris, iv, enflurane anesthesia, read-out: prolongation of QTc-interval

In the case of `CS(=O)(=O)Nc1ccc(C(=O)C2CCN(CCc3ccncc3)CC2)cc1.Cl.Cl` [Compound J, 4-(4-methylsulfonylaminobenzoyl)-1-[2-(4-pyridyl)ethyl]piperidine dihydrochloride], the activation at 10 µM [1, 4] is reported as 10%, the inhibition at 10 µM [1, 4] is reported as 0% and the activation at 1 µM [1, 5] is reported as 4%. For the same molecule, the inhibition at 1 µM [1, 5] was 0%, the change in vivo at 0.1 mg/kg [2, 6] was 21% and the change in vivo at 0.3 mg/kg [2, 7] was 42%. The LD50 at 0.5 h [3] was 195 mg/kg.
With `CS(=O)(=O)Nc1ccc(C(=O)C2CCN(CCc3ccc(Cl)cc3)CC2)cc1` [Compound C, 1-[2-(4-chlorophenyl)ethyl]-4-(4-methylsulfonylaminobenzoyl)piperidine hydrochloride] the activation at 10 µM [1, 4] was 15%, the inhibition at 10 µM [1, 4] was 0% and the activation at 1 µM [1, 5] was 7%. For the same molecule, the inhibition at 1 µM [1, 5] was 0%.
With `CS(=O)(=O)Nc1ccc(C(=O)C2CCN(Cc3ccc4nccn4c3)CC2)cc1` [Compound Q, 1-(6-imidazo[1,2-a]pyridylmethyl)-4-(4-methylsulfonylaminobenzoyl)piperidine dihydrochloride] the activation at 10 µM [1, 4] was 23%, the inhibition at 10 µM [1, 4] was 0% and the activation at 1 µM [1, 5] was 4%. For the same molecule, the inhibition at 1 µM [1, 5] was 0%.
`CS(=O)(=O)Nc1ccc(C(=O)C2CCN(CCc3cccs3)CC2)cc1.CS(=O)(=O)O` [Compound F, 4-(4-methylsulfonylaminobenzoyl)-1-[2-(2-thienyl)ethyl]piperidine methylsulfonate] gave an activation at 10 µM [1, 4] of 11%, an inhibition at 10 µM [1, 4] of 0% and an activation at 1 µM [1, 5] of 8%. The inhibition at 1 µM [1, 5] was 0% and the LD50 at 0.5 h [3] was 112 mg/kg.
`COc1ccc(CCN2CCC(C(=O)c3ccc(NS(C)(=O)=O)cc3)CC2)cc1OC` [Compound E, 1-[2-(3,4-dimethoxyphenyl)ethyl]-4-(4-methylsulfonylaminobenzoyl)piperidine hydrochloride] showed an activation at 10 µM [1, 4] of 14%, an inhibition at 10 µM [1, 4] of 0% and an activation at 1 µM [1, 5] of 12%. For the same molecule, the inhibition at 1 µM [1, 5] was 0%.
With `CS(=O)(=O)Nc1ccc(C(=O)C2CCN(Cc3ccc4ccccc4n3)CC2)cc1.Cl.Cl` [Compound L, 4-(4-methylsulfonylaminobenzoyl)-1-(2-quinolylmethyl)piperidine dihydrochloride] the activation at 10 µM [1, 4] was 26%, the inhibition at 10 µM [1, 4] was 2% and the activation at 1 µM [1, 5] was 18%. For the same molecule, the inhibition at 1 µM [1, 5] was 0%, the change in vivo at 0.1 mg/kg [2, 6] was 31% and the change in vivo at 0.3 mg/kg [2, 7] was 56%. It also gave an LD50 at 0.5 h [3] of 112 mg/kg.
With `CS(=O)(=O)Nc1ccc(C(=O)C2CCN(Cc3cnc4ccccc4c3)CC2)cc1.Cl.Cl` [Compound M, 4-(4-methylsulfonylaminobenzoyl)-1-(3-quinolylmethyl)piperidine dihydrochloride] the activation at 10 µM [1, 4] was 5%, the inhibition at 10 µM [1, 4] was 0% and the activation at 1 µM [1, 5] was 3%. For the same molecule, the inhibition at 1 µM [1, 5] was 0%, the change in vivo at 0.1 mg/kg [2, 6] was 7% and the change in vivo at 0.3 mg/kg [2, 7] was 13%. For the same molecule, the change in vivo at 1 mg/kg [2, 7] was 21% and the LD50 at 0.5 h [3] was 112 mg/kg.
With `CS(=O)(=O)Nc1ccc(C(=O)C2CCN(CCc3ccccc3)CC2)cc1.Cl` [Compound B, 4-(4-methylsulfonylaminobenzoyl)-1-(2-phenylethyl)piperidine hydrochloride] the activation at 10 µM [1, 4] was 34%, the inhibition at 10 µM [1, 4] was 19% and the activation at 1 µM [1, 5] was 26%. The inhibition at 1 µM [1, 5] was 0%, the QTc-interval after compound ([2]; 0.1 mg/kg, from 435 msec before) was 665 ms and the change in vivo at 0.1 mg/kg [2, 6] was 51%. It also gave an LD50 at 0.5 h [3] of 100 mg/kg.
For `CS(=O)(=O)Nc1ccc(C(=O)C2CCN(CCc3cccnc3)CC2)cc1` [Compound I, 4-(4-methylsulfonylaminobenzoyl)-1-[2-(3-pyridyl)ethyl]piperidine dihydrochloride], the activation at 10 µM [1, 4] was 17%, the inhibition at 10 µM [1, 4] was 0% and the activation at 1 µM [1, 5] was 10%. It also gave an inhibition at 1 µM [1, 5] of 0%.
Molecule `CCN1CCC(C(=O)c2ccc(NS(C)(=O)=O)cc2)CC1` [Compound P, 1-ethyl-4-(4-methylsulfonylaminobenzoyl)piperidine hydrochloride] has an activation at 10 µM [1, 4] of 23%, an inhibition at 10 µM [1, 4] of 2% and an activation at 1 µM [1, 5] of 7%. For the same molecule, the inhibition at 1 µM [1, 5] was 0%, the change in vivo at 0.1 mg/kg [2, 6] was 7% and the change in vivo at 0.3 mg/kg [2, 7] was 14%.
`Cc1cccc(CCN2CCC(C(=O)c3ccc(NS(C)(=O)=O)cc3)CC2)n1` [Compound S, 1-(2-(6-methyl-2-pyridyl)ethyl)-4-(4-methylsulfonylaminobenzoyl)piperidinedihydrochloride] showed an activation at 1 µM [1] of 20%, an activation at 10 µM [1] of 30% and an inhibition at 1 µM [1] of 0%. It also gave an inhibition at 10 µM [1] of 0%.
For `CS(=O)(=O)Nc1ccc(C(=O)C2CCN(C(=O)c3ccc(NS(C)(=O)=O)cc3)CC2)cc1` [Compound D, 1,4-di(4-methylsulfonylaminobenzoyl)piperidine hydrochloride], the activation at 10 µM [1, 4] was 10%, the inhibition at 10 µM [1, 4] was 0% and the activation at 1 µM [1, 5] was 3%. For the same molecule, the inhibition at 1 µM [1, 5] was 0%.
`CS(=O)(=O)Nc1ccc(C(=O)C2CCN(Cc3ccccc3)CC2)cc1` [Compound A, 1-benzyl-4-(4-methylsulfonylaminobenzoyl)piperidine hydrochloride] gave an activation at 10 µM [1, 4] of 7%, an inhibition at 10 µM [1, 4] of 0% and an activation at 1 µM [1, 5] of 0%. It also gave an inhibition at 1 µM [1, 5] of 0%.
`CS(=O)(=O)Nc1ccc(C(=O)C2CCN(CC(=O)c3cnc4ccccn34)CC2)cc1.Cl.Cl` [Compound N, 1-[2-(3-imidazo[1,2-a]pyridyl)-2-oxo-ethyl]-4-(4-methylsulfonylaminobenzoyl)piperidine dihydrochloride] gave an activation at 10 µM [1, 4] of 8%, an inhibition at 10 µM [1, 4] of 0% and an activation at 1 µM [1, 5] of 8%. It also gave an inhibition at 1 µM [1, 5] of 0% and an LD50 at 0.5 h [3] of 224 mg/kg.
Molecule `CS(=O)(=O)Nc1ccc(C(=O)C2CCN(CCc3ccccn3)CC2)cc1` [Compound H, 4-(4-methylsulfonylaminobenzoyl)-1-[2-(2-pyridyl)ethyl]piperidine dihydrochloride] has an activation at 10 µM [1, 4] of 5%, an inhibition at 10 µM [1, 4] of 0% and an activation at 1 µM [1, 5] of 2%. It also gave an inhibition at 1 µM [1, 5] of 0%.
Molecule `CC(C)NCC(O)c1ccc(NS(C)(=O)=O)cc1` (centres unmarked) [Sotalol, reference compound] has an activation at 10 µM [1, 4] of 7%, an inhibition at 10 µM [1, 4] of 0% and an activation at 1 µM [1, 5] of 0%. The inhibition at 1 µM [1, 5] was 0%, the change in vivo at 1 mg/kg [2, 7] was 12% and the LD50 at 0.5 h [3] was 113 mg/kg.
`CS(=O)(=O)Nc1ccc(C(=O)C2CCN(Cc3cn4ccccc4n3)CC2)cc1` [Compound O, 1-(1-imidazo[1,2-a]pyridylmethyl)-4-(4-methylsulfonylaminobenzoyl)piperidine dihydrochloride] showed an activation at 10 µM [1, 4] of 12%, an inhibition at 10 µM [1, 4] of 5% and an activation at 1 µM [1, 5] of 6%. The inhibition at 1 µM [1, 5] was 0% and the LD50 at 0.5 h [3] was 302 mg/kg.
For `CS(=O)(=O)Nc1ccc(C(=O)C2CCN(CCCc3ccncc3)CC2)cc1.Cl.Cl` [Compound R, 4-(4-methylsulfonylaminobenzoyl)-1-(3-(4-pyridyl)propyl)piperidine dihydrochloride], the activation at 10 µM [1, 4] was 27%, the inhibition at 10 µM [1, 4] was 0% and the activation at 1 µM [1, 5] was 18%. It also gave an inhibition at 1 µM [1, 5] of 0%, a change in vivo at 0.03 mg/kg ([2]; Canis lupus familiaris, iv, 0.03 mg/kg, enflurane anesthesia, read-out: prolongation of QTc-interval) of 13% and a change in vivo at 0.1 mg/kg [2, 6] of 21%. For the same molecule, the LD50 at 0.5 h [3] was 138 mg/kg.
With `CS(=O)(=O)Nc1ccc(C(=O)C2CCN(C(=O)c3cccnc3)CC2)cc1` [Compound K, 4-(4-methylsulfonylaminobenzoyl)-1-nicotinoylpiperidine] the activation at 10 µM [1, 4] was 24%, the inhibition at 10 µM [1, 4] was 14% and the activation at 1 µM [1, 5] was 9%. For the same molecule, the inhibition at 1 µM [1, 5] was 0%.
`CS(=O)(=O)Nc1ccc(C(=O)C2CCN(Cc3ccncc3)CC2)cc1.Cl.Cl` [Compound G, 4-(4-methylsulfonylaminobenzoyl)-1-(4-pyridyl)methylpiperidine dihydrochloride] showed an activation at 10 µM [1, 4] of 33%, an inhibition at 10 µM [1, 4] of 0% and an activation at 1 µM [1, 5] of 18%. It also gave an inhibition at 1 µM [1, 5] of 0%, a change in vivo at 0.1 mg/kg [2, 6] of 17% and a change in vivo at 0.3 mg/kg [2, 7] of 27%. For the same molecule, the change in vivo at 1 mg/kg [2, 7] was 35% and the LD50 at 0.5 h [3] was 108 mg/kg.
